Key:
IRAK4 [1] = biological target: T1, IRAK4 (Homo sapiens, UniProt Q9NWZ3); assay: OCI-LY-10 degradation assay (western blot, % IRAK4 degraded after 4 hours); type: cell-based; parameters: endogenous in cells; host or cells: OCI-LY10; conditions: OCI-LY10 cells, 4 hours; for OCI-LY10 % IRAK4 Degradation (0.01 uM): 0.01 uM compound; for OCI-LY10 % IRAK4 Degradation (0.1 uM): 0.1 uM compound; for OCI-LY10 % IRAK4 Degradation (1 uM): 1 uM compound
T1 sequence (Q9NWZ3 1-460): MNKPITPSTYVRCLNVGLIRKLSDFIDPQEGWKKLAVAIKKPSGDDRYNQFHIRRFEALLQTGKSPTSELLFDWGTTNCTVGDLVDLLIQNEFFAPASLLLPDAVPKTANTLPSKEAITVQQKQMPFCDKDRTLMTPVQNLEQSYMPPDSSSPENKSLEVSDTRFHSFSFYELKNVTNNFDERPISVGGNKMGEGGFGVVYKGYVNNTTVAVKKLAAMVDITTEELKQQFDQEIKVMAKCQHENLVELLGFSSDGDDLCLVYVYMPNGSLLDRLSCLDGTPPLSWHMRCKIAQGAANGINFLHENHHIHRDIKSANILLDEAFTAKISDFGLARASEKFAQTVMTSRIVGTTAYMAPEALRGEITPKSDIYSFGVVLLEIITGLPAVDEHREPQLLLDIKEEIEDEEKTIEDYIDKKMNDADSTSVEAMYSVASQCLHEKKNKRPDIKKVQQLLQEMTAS
How it was run: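 IRAK4 loss after 4 h at 37° C was scored A (>50%), B (>20-50%) or C (<20%) from infrared western blots of RIPA lysates, 20-25 μg protein per lane. Compound was applied at 0.003-10 μM final to OCI-LY10 cells cultured in RPMI-1640 with 20% FBS and 55 μM 2-ME.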

IRAK4 [2] = biological target: T1, IRAK4; assay: OCI-LY-10 MSD assay for IRAK4 DC50; type: cell-based; parameters: endogenous in cells; host or cells: OCI-LY10; conditions: OCI-LY10 cells, 4 hr incubation, concentration required to degrade 50% of protein
Experimental: A MSD assay was run to determine the concentration of compound required to degrade 50% of protein (DC50).
Day 1 • Compounds were reconstituted to 10 mM in stock solutions. The stock solutions were diluted to 5 mM and 45 μL of each dilution was transferred to a 384 pp-plate. A 3 fold, 8-point serial dilution was performed by transferring 15 μL of compound into 30 μL DMSO using Janus. • 20 nL of each compounds were added into each well of a 96-well plate (Corning3799). • OCI-Ly10 cells were seeded into the 96-well plate at 3.0*10e^5 cells/100 μL/well. • The cell plate was shaken at 720 rpm for 5 min and incubated for 4 hr. • The 100 μL of cells were transferred into the 96-PCR plate and spun down at high speed for 5 mins. • The supernatant was discarded and 100 μL of RIPA lysis buffer with proteinase inhibitors was added per well. The plate was then sealed and shaken at 600 rpm and 4° C. for about 20 min. • The plate was then spun down at high speed (about 3200 g) for 30 min and then frozen in a −80° C. fridge. • A bare MSD plate (L15XA-3) was coated with 2 μg/mL of capture antibody (mouse Anti-IRAK4 antibody [2H9], ab119942) in PBS to 40 μL/well and incubated overnight at 4° C.
Day 2 • The MSD coated plate was washed 3× (150 μL/well) with 1×TBST (CST #9997S). • The MSD plate was then blocked with 150 μL of blocking buffer [3% Blocker A (MSD, R93BA-4) in TBST]/well and shaken for 1 hr at R^† and 600 rpm. • The MSD plate was washed 3× (150 μL/well) with 1×TBST. The sample RIPA lysates were then added to the MSD plate (50 μL/well) and shaken for 1 hr at R^† and 600 rpm. • The MSD plate was washed 3× (150 μL/well) with 1×TBST and the primary detection antibody (Rabbit Anti-IRAK4 antibody [Y279], ab32511) was added to a final concentration of 1 μg/ml with 25 μL/well. The plate was then shaken for 1 hr at RT and 600 rpm. • The MSD plate was washed 3× (150 μL/well) with 1×TBST and the secondary detection antibody, SULFO-TAG anti-species antibody (Anti Rabbit Antibody (R32AB-5) MSD, R32AB-1) was added to a volume of 25 μL/well at a final concentration of 1 jag/ml. The plate was then shaken for 1 hr at RT and 600 rpm. • The MSD plate was then washed 3× (150 μL/well) with 1×TBST. • lx MSD reading buffer was then added (150 μL/well) and the plate was diluted with 4× water. (MSD, R92TC-2) • The MSD instrument was then read.
Data Analysis • The remaining activity was calculated following the formula below:
Calculate • The DC50 was calculated by fitting the Curve using Xlfit (v5.3.1.3), equation 201: Y=Bottom+(Top−Bottom)/(1+10^((Log IC50−X)*HillSlope))
OCI-LY-10 DC50 results. The letter codes for IRAK4 DC50 indicate the concentration of compound required to degrade 50% of protein: A (<0.05 μM), B (0.05-0.1 μM), C (0.1-0.5 μM), D (0.5-1.0 μM), and E (>1.0 μM).

Structure (SMILES) | OCI-LY10 % IRAK4 Degradation (0.01 uM) (IRAK4 [1]) | OCI-LY10 % IRAK4 Degradation (0.1 uM) (IRAK4 [1]) | OCI-LY10 % IRAK4 Degradation (1 uM) (IRAK4 [1]) | DC50 (IRAK4 [2])
NC(=O)c1nn(-c2ccc(CNCCOCCCc3cccc4c3C(=O)N(C3CCC(=O)NC3=O)C4=O)cc2)cc1NC(=O)c1coc(-c2ccnc(NCC(F)(F)F)c2)n1 (centres unmarked) [I-320] | C (<20% degradation) | B (>20-50% degradation) | B (>20-50% degradation) | > 1000 nM
NC(=O)c1nn(CCOCCOCCOCCOCCNc2cccc3c2C(=O)N(C2CCC(=O)NC2=O)C3=O)cc1NC(=O)c1coc(-c2ccnc(NCC3CC3)c2)n1 (centres unmarked) [I-240] | B (>20-50% degradation) | B (>20-50% degradation) | B (>20-50% degradation) | > 1000 nM
O=C1CCC(N2Cc3c(NC4CCN(CCOCCOCCNCc5ccc(-n6cc(NC(=O)c7coc(-c8ccnc(NCC9CC9)c8)n7)c(C(F)F)n6)cc5)CC4)cccc3C2=O)C(=O)N1 (centres unmarked) [I-384] | – | – | – | 500 to 1000 nM
Cn1c(=O)n(C2CCC(=O)NC2=O)c2ccc(CCCCOCCCCNCc3ccc(-n4cc(NC(=O)c5coc(-c6ccnc(NCC7CC7)c6)n5)c(C(F)F)n4)cc3)cc21 (centres unmarked) [I-411, 2-[2-(cyclopropylmethylamino)-4-pyridyl]-N-[3-(difluoromethyl)-1-[4-[[4-[4-[1-(2,6-dioxo-3-piperidyl)-3-methyl-2-oxo-benzimidazol-5-yl]butoxy]butylamino]methyl]phenyl]pyrazol-4-yl]oxazole-4-carboxamide] | – | – | – | < 50 nM
Cn1c(=O)n(C2CCC(=O)NC2=O)c2cccc(CCCNCc3ccc(-n4cc(NC(=O)c5coc(-c6ccnc(NCC7CC7)c6)n5)c(C(F)F)n4)cc3)c21 (centres unmarked) [I-423] | – | – | – | > 1000 nM
Cn1c(=O)n(C2CCC(=O)NC2=O)c2ccc(CCCCCCC(=O)N3CCN(C4CCC(Nc5ncnn6ccc(C7CCOCC7)c56)CC4)CC3)cc21 (centres unmarked) [I-438] | – | – | – | > 1000 nM
O=C1CCC(N2C(=O)c3cccc(NCCOCCOCCNCc4ccc(-n5cc(NC(=O)c6coc(-c7ccnc(NCC(F)(F)F)c7)n6)c(CCCO)n5)cc4)c3C2=O)C(=O)N1 (centres unmarked) [I-402] | – | – | – | > 1000 nM
O=C1CCC(N2C(=O)c3cccc(NCCCCNCCCNC(=O)c4ccc(-n5cc(NC(=O)c6coc(-c7ccnc(NCC8CC8)c7)n6)c(C(F)(F)F)n5)cc4)c3C2=O)C(=O)N1 (centres unmarked) [I-218] | – | – | – | > 1000 nM
Cn1c(=O)n(C2CCC(=O)NC2=O)c2ccc(CCCOCC(C)(C)COCCCNCc3ccc(-n4cc(NC(=O)c5coc(-c6ccnc(NCC7CC7)c6)n5)c(C(F)F)n4)cc3)cc21 (centres unmarked) [I-421] | – | – | – | 100 to 500 nM
COCC(=O)N[C@H](C(=O)N1Cc2cc(OCCOCCOCCOCCOCCOCCNCc3ccc(-n4cc(NC(=O)c5coc(-c6ccnc(NCC7CC7)c6)n5)c(C(F)F)n4)cc3)ccc2CC1C(=O)N[C@@H]1CCCc2ccccc21)C(C)(C)C (some centres unmarked) [I-416] | – | – | – | > 1000 nM

Now from value to molecule:

OCI-LY10 % IRAK4 Degradation (0.01 uM) (IRAK4 [1]) | OCI-LY10 % IRAK4 Degradation (0.1 uM) (IRAK4 [1]) | OCI-LY10 % IRAK4 Degradation (1 uM) (IRAK4 [1]) | DC50 (IRAK4 [2]) | Structure (SMILES)
C (<20% degradation) | A (>50% degradation) | A (>50% degradation) | 50 to 100 nM | O=C1CCC(N2C(=O)c3cccc(OCc4cn(CCOCCOCCNCc5ccc(-n6cc(NC(=O)c7coc(-c8ccnc(NCC9CC9)c8)n7)c(C(F)F)n6)cc5)nn4)c3C2=O)C(=O)N1 (centres unmarked) [I-344]
B (>20-50% degradation) | A (>50% degradation) | A (>50% degradation) | < 50 nM | CN(CCNCCCc1ccc2c(c1)C(=O)N(C1CCC(=O)NC1=O)C2=O)C(=O)c1ccc(-n2cc(NC(=O)c3coc(-c4ccnc(NCC5CC5)c4)n3)c(C(N)=O)n2)cc1 (centres unmarked) [I-397]
B (>20-50% degradation) | A (>50% degradation) | A (>50% degradation) | < 50 nM | NC(=O)c1nn(-c2ccc(CNCCOCCOCCCc3cccc4c3C(=O)N(C3CCC(=O)NC3=O)C4=O)cc2)cc1NC(=O)c1coc(-c2ccnc(NCC(F)(F)F)c2)n1 (centres unmarked) [I-321]
C (<20% degradation) | A (>50% degradation) | A (>50% degradation) | 50 to 100 nM | NC(=O)c1nn(-c2ccc(C(=O)NCCOCCOCCOCCOCCCc3cccc4c3C(=O)N(C3CCC(=O)NC3=O)C4=O)cc2)cc1NC(=O)c1coc(-c2ccnc(NCC(F)(F)F)c2)n1 (centres unmarked) [I-235]
C (<20% degradation) | C (<20% degradation) | A (>50% degradation) | 50 to 100 nM | CC(=O)O[C@@H]1C[C@@H](C(=O)NCc2ccc(-n3cc(NC(=O)c4coc(-c5ccnc(NCC6CC6)c5)n4)c(C(F)F)n3)cc2)N(C(=O)COCCOCCOCCNc2cccc3c2C(=O)N(C2CCC(=O)NC2=O)C3=O)C1 (some centres unmarked) [I-288]
– | – | – | < 50 nM | CC(NCCOCCOCCCc1cccc2c1n(C)c(=O)n2C1CCC(=O)NC1=O)c1ccc(-n2cc(NC(=O)c3coc(-c4ccnc(NCC5CC5)c4)n3)c(C(F)F)n2)cc1 (centres unmarked) [I-401]
– | – | – | < 50 nM | CN(CCOCCCc1cccc2c1C(=O)N(C1CCC(=O)NC1=O)C2=O)Cc1ccc(-n2cc(NC(=O)c3coc(-c4ccnc(NCC5CC5)c4)n3)c(C(N)=O)n2)cc1 (centres unmarked) [I-313]
– | – | – | < 50 nM | O=C1CCC(N2C(=O)c3cccc(NC4CCN(CCOCCNC(=O)c5ccc(-n6cc(NC(=O)c7coc(-c8ccnc(NCC9CC9)c8)n7)c(C(F)F)n6)cc5)CC4)c3C2=O)C(=O)N1 (centres unmarked) [I-268]
– | – | – | < 50 nM | Cn1c(=O)n(C2CCC(=O)NC2=O)c2cccc(CCCOCCCNCc3ccc(-n4cc(NC(=O)c5coc(-c6ccnc(NCC7CC7)c6)n5)c(C(F)F)n4)cc3)c21 (centres unmarked) [I-404]
– | – | – | 100 to 500 nM | Cn1c(=O)n(C2CCC(=O)NC2=O)c2cccc(CCCOCC(C)(C)COCCCNCc3ccc(-n4cc(NC(=O)c5coc(-c6ccnc(NCC7CC7)c6)n5)c(C(F)F)n4)cc3)c21 (centres unmarked) [I-419]
– | – | – | 50 to 100 nM | O=C1CCC(N2C(=O)c3cccc(N4CCN(CCOCCOCCNC(=O)c5ccc(-n6cc(NC(=O)c7coc(-c8ccnc(NCC9CC9)c8)n7)c(C(F)F)n6)cc5)CC4)c3C2=O)C(=O)N1 (centres unmarked) [I-273]
– | – | – | 100 to 500 nM | Cn1c(=O)n(C2CCC(=O)NC2=O)c2cccc(CCCOCCOCCNCc3ccc(-n4cc(NC(=O)c5cnn6ccc(N7CCNCC7)nc56)c(C(F)F)n4)cc3)c21 (centres unmarked) [I-446, N-[3-(difluoromethyl)-1-[4-[[2-[2-[3-[1-(2,6-dioxo-3-piperidyl)-3-methyl-2-oxo-benzimidazol-4-yl]propoxy]ethoxy]ethylamino]methyl]phenyl]pyrazol-4-yl]-5-piperazin-1-yl-pyrazolo[1,5-a]pyrimidine-3-carboxamide]
– | – | – | < 50 nM | NC(=O)c1nn(-c2ccc(CNCCCOCCCNc3cccc4c3C(=O)N(C3CCC(=O)NC3=O)C4=O)cc2)cc1NC(=O)c1coc(-c2ccnc(NCC3CC3)c2)n1 (centres unmarked) [I-399]
